Assay results as given in article PMC6877910, “Astrocyte-Targeted Transporter-Utilizing Derivatives of Ferulic Acid Can Have Multifunctional Effects Ameliorating Inflammation and Oxidative Stress in the Brain” (Oxidative Medicine and Cellular Longevity, 2019).
Where two headings read alike, the source gives them in different places.

Key:
[1] = Intracellular unbound drug concentration ratio (Kp,uu) in astrocytes; format: in vitro ADME; conditions: C57BL/6J, mouse, read-out: Kp,uu (unbound intracellular : extracellular ratio)
Description: (§1) The unbound fraction of FA and its derivatives 1-2 was determined at 10 μM in cell homogenate by using a Rapid Equilibrium Dialysis (RED) device (Thermo Fisher Scientific, Inc., Waltham, MA, USA). Briefly, the cell homogenate was prepared from astrocyte cell suspension (10 × 10^6 cells/mL) in HBSS with a SoniPerp 150 Plus disintegrator (MSE Ltd., London, UK) for 2 s × 3. 100 μL of cell homogenate spiked with the studied compound was added to the reaction chamber, and 350 μL of HBSS buffer was added to the buffer chamber of the RED plate. The dialysis plate was incubated at 37°C for 4 h with shaking. […]
The drug concentration ratio in astrocytes (Kp) was determined at 0.01-1.0 μM concentrations by comparing the cellular uptake from the cell lysates (0.1 M NaOH) to the concentration detected from the surrounding buffer (HBSS) collected before cell lysing as described by Mateus et al.: (3) Kp=Acell/Vcell/Cmedium, where Acell is the amount of compound in the cell lysate (nmol), Vcell is the astrocyte cell volume (0.05810^−15 L/cell) for 10 × 10^4 cells/well, and Cmedium is the compound concentration in the surrounding buffer. The unbound drug concentration ratio (Kp,uu) was then calculated by multiplying the drug concentration ratio (Kp) by unbound drug fraction (fu,cell) as described by Mateus et al.: (4) Kp,uu=Kp×fu,cell.

OATP/OAT = assay: Transporter-mediated cellular uptake into primary astrocytes, secondary mechanism (Eadie-Hofstee); format: in vitro ADME, mouse; conditions: Eadie-Hofstee analysis, mean ± SD, n = 3
Description: (§2) For the cell uptake experiments, the astrocytes were seeded on 24-well plates with a density of 10 × 10^4 cells/well three days before the experiments as described earlier. Cellular uptake of derivatives 1-3 of FA was studied by incubating the cells at 37°C for 30 min (uptake was linear with all compounds up to 30 min) with compounds at the concentration of 1-200 μM in prewarmed HBSS buffer (250 μL). […]; Agilent Technologies, Santa Clara, CA). The concentrations of each compound in cell lysates were calculated from the standard curve that was prepared by spiking known amounts of compounds to ACN including the selected internal standard and then normalized with protein concentration. The protein concentrations on each plate were determined as a mean of three samples by Bio-Rad Protein Assay, based on the Bradford dye-binding method, using bovine serum albumin (BSA) as a standard protein and measuring the absorbance (595 nm) by a multiplate reader (EnVision, PerkinElmer, Inc., Waltham, MA, USA).
(§3) All the cellular studies were carried out as three biological replicates from the same cell passage. The function of LAT1 was followed between the used cell passages (7-16) with a LAT1 probe substrate, [^14C]-L-leucine, and noticed to be unaltered. All statistical analyses, including Michaelis-Menten, Eadie-Hofstee, and Hanes-Woolf analyses, were performed using GraphPad Prism v. 5.03 software (GraphPad Software, San Diego, CA, USA). Statistical differences between groups were tested using one-way ANOVA, followed by Tukey's multiple comparison test, and presented as the mean ± SD, with significant differences denoted by asterisks (^∗P < 0.05, ^∗∗P < 0.01, and ^∗∗∗P < 0.001).

LAT1 [2] = molecular target: T1, LAT1 (Mus musculus, UniProt Q9Z127); assay: Transporter-mediated cellular uptake into primary astrocytes, primary mechanism (Eadie-Hofstee); format: in vitro ADME; conditions: Eadie-Hofstee analysis, mean ± SD, n = 3
T1 construct: mouse primary astrocytes, from which we have recently characterized LAT1 expression and function; endogenous in cells; host or cells: mouse primary astrocytes (cortex and hippocampi of 2-day-old wild-type and APP/PS1 mice)
Description: as §2, §3

purified human BACE1 = molecular target: T2, purified human BACE1 (Homo sapiens, UniProt P56817); assay: BACE1 FRET inhibition assay (SensoLyte 520); format: biochemical; conditions: 1 and 10 μM; 30 min
T2 construct: purchased AnaSpec, Inc., Fremont, CA, USA SensoLyte 520 BACE1 Assay kit (catalogue number not given)
Source text: A fluorometric assay was used to screen the inhibitory effect of the studied compounds on purified human BACE1 using a fluorescence resonance energy transfer (FRET) peptide technique (SensoLyte© 520 BACE1 Assay kit, AnaSpec, Inc., Fremont, CA, USA) according to the manufacturer's protocol. […] The sequence of the FRET peptide has been derived from the β-secretase cleavage site of β-amyloid precursor protein (APP) with Swedish mutation, which enhances β-secretase to process APP resulting in an early onset of AD. Thus, active β-secretase cleaved FRET substrate into two separate fragments resulting in the release of HiLyte™ Fluor 488 fluorescence that was measured by the EnVision plate reader (EnVision, PerkinElmer, Inc., Waltham, MA, USA) at λex 490 nm and λem 520 nm. […] The results were reported as percentages (%), with control sample representing 100% β-secretase activity.

primary astrocytes = assay: Astrocyte cell growth / viability (resazurin); format: cell-based; conditions: for Effect on astrocyte viability at low concentrations: 5-100 μM, 72 h; for Concentrations with significant antiproliferative efficacy on astrocytes: 72 h incubation, 5-400 μM
Description: Primary astrocytes were seeded at the density of 10 × 10^3 cells/well onto collagen-coated 96-well plates. The cells were used for the proliferation experiments one day after seeding. Concentrations of 5-400 μM FA or its LAT1-utilizing derivatives 1-3 were added into the growth medium and incubated for 3 days. Each day, the cell viability was determined by resazurin cell proliferation kit (Sigma, St. Louis, MO, USA), which is directly proportional to aerobic respiration and cellular metabolism of cells. The samples were measured fluorometrically by monitoring the increase in fluorescence at λex 560 nm and λem 590 nm (EnVision, PerkinElmer, Inc., Waltham, MA, USA). The cell viability was also followed by visualizing the wells with microscopy. The ability of compounds to inhibit the viability of the cells was expressed as percentages (%) compared to the untreated controls.

in vitro = in vitro ADME; conditions: mouse; for fraction unbound at 4 h, 10 μM: C57BL/6J
Description: as §1, with “shaking. 50 μL of samples was taken from the reaction, and buffer chambers and equal size of buffer or blank homogenate were added, respectively, to yield identical matrices. The proteins were precipitated by adding 100 μL of ice-cold ACN (including the selected internal standard;” for “shaking.”

LAT1 [3] = conditions: human breast adenocarcinoma cells (MCF-7); previously determined values; cited from earlier work
[4] = 10 μM in astrocyte cell homogenate, mean ± SD, n = 3, read-out: Unbound fraction fu,cell

T1 sequence (Q9Z127 whole entry): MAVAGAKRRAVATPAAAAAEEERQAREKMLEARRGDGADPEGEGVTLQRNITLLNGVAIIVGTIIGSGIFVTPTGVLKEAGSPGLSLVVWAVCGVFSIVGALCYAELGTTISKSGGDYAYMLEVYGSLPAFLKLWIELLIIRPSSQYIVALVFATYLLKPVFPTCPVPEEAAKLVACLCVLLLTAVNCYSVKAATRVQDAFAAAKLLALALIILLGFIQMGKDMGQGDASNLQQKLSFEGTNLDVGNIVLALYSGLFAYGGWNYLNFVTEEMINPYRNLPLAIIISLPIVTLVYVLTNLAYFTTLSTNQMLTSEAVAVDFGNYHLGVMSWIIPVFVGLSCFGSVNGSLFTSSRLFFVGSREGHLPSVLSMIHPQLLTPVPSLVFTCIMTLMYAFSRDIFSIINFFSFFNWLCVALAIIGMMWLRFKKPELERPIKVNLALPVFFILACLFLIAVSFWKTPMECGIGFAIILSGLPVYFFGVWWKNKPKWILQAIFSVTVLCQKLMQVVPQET
T1 sequence (P10852 whole entry partner): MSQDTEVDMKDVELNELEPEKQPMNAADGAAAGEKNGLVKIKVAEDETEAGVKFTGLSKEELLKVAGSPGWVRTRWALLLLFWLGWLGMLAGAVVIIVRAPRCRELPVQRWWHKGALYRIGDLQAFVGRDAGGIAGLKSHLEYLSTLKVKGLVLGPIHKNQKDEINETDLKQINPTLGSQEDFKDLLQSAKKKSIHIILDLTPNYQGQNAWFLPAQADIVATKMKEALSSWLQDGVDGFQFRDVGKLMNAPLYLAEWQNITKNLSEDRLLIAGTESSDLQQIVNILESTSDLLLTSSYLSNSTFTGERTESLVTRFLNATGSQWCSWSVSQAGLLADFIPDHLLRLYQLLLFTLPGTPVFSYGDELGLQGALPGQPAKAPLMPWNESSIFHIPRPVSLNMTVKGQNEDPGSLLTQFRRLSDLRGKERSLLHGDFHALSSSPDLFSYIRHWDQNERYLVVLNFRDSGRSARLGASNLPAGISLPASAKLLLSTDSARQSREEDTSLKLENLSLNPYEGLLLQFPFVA
T2 sequence (P56817 46-501): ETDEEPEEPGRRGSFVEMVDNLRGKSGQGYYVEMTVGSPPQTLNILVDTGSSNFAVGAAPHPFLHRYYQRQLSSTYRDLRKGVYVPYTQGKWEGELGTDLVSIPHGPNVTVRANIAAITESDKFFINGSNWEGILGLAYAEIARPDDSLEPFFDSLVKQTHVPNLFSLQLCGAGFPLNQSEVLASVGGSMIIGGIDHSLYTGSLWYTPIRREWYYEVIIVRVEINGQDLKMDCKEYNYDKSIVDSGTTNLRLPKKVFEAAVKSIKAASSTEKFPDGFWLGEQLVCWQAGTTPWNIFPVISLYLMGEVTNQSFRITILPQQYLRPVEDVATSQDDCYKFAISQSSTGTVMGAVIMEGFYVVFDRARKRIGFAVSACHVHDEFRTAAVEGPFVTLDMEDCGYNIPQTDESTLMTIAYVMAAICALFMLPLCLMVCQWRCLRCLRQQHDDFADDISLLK

Row | Compound | Kp uu ([1]; throughout the studied concentrations (0.01-1.0 μM)) | Secondary transport mechanism (OATP/OAT) K m (OATP/OAT) | Secondary transport mechanism (OATP/OAT) V max (OATP/OAT) | Primary transport mechanism (LAT1) K m (LAT1 [2]) | Primary transport mechanism (LAT1) V max (LAT1 [2]) | BACE1 inhibition (purified human BACE1) | Effect on astrocyte viability at low concentrations (primary astrocytes) | Concentrations with significant antiproliferative efficacy on astrocytes (primary astrocytes) | fraction unbound at 4 h, 10 μM (in vitro; [4]) | IC50 (LAT1 [3]) | fraction unbound at 4 h, 10 μM (in vitro; tissue homogenate) | Unbound fraction fu,cell (in vitro; tissue homogenate) | Kp uu ([1]; lower concentrations (<0.1 μM))
1 | COc1cc(C=CC(=O)Nc2cccc(CC(N)C(=O)O)c2)ccc1O (centres unmarked) [FA-derivative 2] | 0.83 to 1.74 | 153.8 ± 15.0 µM | 0.172 ± 0.013 nmol/min/mg protein | 4.2 ± 0.8 µM | 0.013 ± 0.001 nmol/min/mg protein | 91–97% | increased the viability | above 200 μM | 0.0806 ± 0.0054 | 1.1 µM | – | – | –
2 | COc1cc(/C=C/C(=O)O)ccc1O [FA, trans-4-hydroxy-3-methoxycinnamic acid, reference compound] | – | Autoactivation | Autoactivation | Autoactivation | Autoactivation | ~97% | increased the viability | above 200 μM | – | – | 1 | Fully unbound | –
3 | COc1cc(C=CC(=O)Oc2cccc(CC(N)C(=O)O)c2)ccc1O (centres unmarked) [FA-derivative 3] | – | Autoactivation | Autoactivation | Autoactivation | Autoactivation | 81–91% | – | above 200 μM | – | – | – | – | –
4 | COc1cc(C=CC(=O)NCc2cccc(CC(N)C(=O)O)c2)ccc1O (centres unmarked) [FA-derivative 1] | – | 101.1 ± 19.7 µM | 0.033 ± 0.402 nmol/min/mg protein | 4.1 ± 2.1 µM | 0.008 ± 0.002 nmol/min/mg protein | 78–91% | increased the viability | above 200 μM | 0.163 ± 0.0272 | 14.2 µM | – | – | 0.25 to 2.14
